Where two headings read alike, the source gives them in different places. Blank lines part the entries; values can stand above or below the molecule they belong to.
Assays:
[1] = test system: HIV-1 in Hela-CD4 cells; assay: Combination medication JHR and AZT (MAGI test); type: cell-based
Method: Method: For the experiment, the MAGI test method was adopted (the same as above).
(A) Single-agent medication: five doses of AZT were used in amount of from 1 μM to 3.9 nM, and were designated AZT1-5, five doses of JHR were designated in amount of 400 ug/ml to 1.56 ug/ml, and IC50 were obtained respectively.
Half dosage of AZT was combined with half dosage of JHR-1 as one sample. AZT1 was combined respectively with any of JHR1-JHR5; Each of AZT2, AZT3, AZT4, AZT5 was respectively combined with any of […]. So a total of 25 concentration combinations could be used. Each concentration was set in duplicate wells (2 wells). Additional group was taken as cell and virus controls.
(C) Comparing each drug combination with the virus group to have the inhibition rate. The inhibition rate of each drug combination was compared with the sole AZT IC50 to obtain the difference of functions each other.

[2] = test system: HIV-1 (single-life-cycle reporter HIV) in Hela-CD4-LTR-gal cells; assay: Inhibition of HIV-1 replication in HeLa-CD4 cells (MAGI test); type: cell-based; settings: for inhibition at 200 µg/mL: Human immunodeficiency virus 1, MAGI, read-out: Inhibition Rate (0.2 mg/ml)
Method: Three types of cells (such as MT4, Hela-CD4, PBMC) were infected respectively with HIV-1 virus for observation of the inhibiting effects of ginseng composition (JHR) prepared in Example 1 upon the HIV-1 replication.
Virus: Single-life-cycle reporter HIV was acquired by transfection with HIV plasmids.
Method: Hela-CD4-LTR-gal cell was inoculated into a 24-well plate at 0.4×10^5/well and cultured for 24 hours and let the cells absorb and adhere to the wall. On the second day, the supernatants were sucked away from the wells and 100 μl drug (drug control) or drug (drug solutions with different concentrations) and HIV-1 or culture medium (Mock) were added. After 2 hours, 200 μl of identical drug solutions or culture medium was added into each well for culturing at 37° C. in a CO2 incubator for 48 hours and detecting by the following method.
Fixation: The supernatants were sucked away from each well and adding the fixative solution (1 ml), and then by staining with K4[Fe(CN)6].3H2O, K3[Fe(CN)6] and X-gel.
Counting: For the blue cell counts (BCC) within each well, the following formula is used to calculate the IR and then IC50.
The same method as that in example 1 is applied, except that the drug added into the wells is Ginsenoside monomer, and the concentration thereof is listed in table 3.

[3] = molecular target: gp41 protein (Human immunodeficiency virus type 1 group M subtype B, UniProt P03375); assay: BIACORE binding to gp41 protein; settings: BIACORE chip, genetically recombined gp41; conjugation to gp41 stronger than to gp120
From the text: The genetically recombined gp41, gp120 were placed on the chip of BIACORE analyzer, respectively, after adding a certain concentration of Rb3 in sufficient amount, the instrument could detect whether or not there was a binding.

[4] = molecular target: T1, gp120 protein (Human immunodeficiency virus type 1 group M subtype B, UniProt P03375); type: binding; settings: BIACORE chip, genetically recombined gp120
T1 construct: The genetically recombined gp41, gp120 were placed on the chip of BIACORE analyzer

[5] = test system: HIV single life cycle model; assay: Viral life cycle stage targeted: dosing at different times post-infection (single life cycle model, MAGI or Luciferase); type: cell-based

EC50 ([1]; AZT alone or AZT combined with JHR dose 1-5, MAGI test, read-out: ED50 (the source's name)): 46 nM | IC50 ([1]; AZT alone, read-out: IC50 of AZT alone): 46 nM | IC50 ([1]; combined with the first dose of JHR, read-out: IC50 of AZT after combining with the first dose of JHR): 5.8 nM
Structure (SMILES): Cc1cn([C@H]2C[C@H](N=[N+]=[N-])[C@@H](CO)O2)c(=O)[nH]c1=O [AZT]

Structure (SMILES): CC(C)=CCC[C@](C)(OC1OC(COC2OC(CO)C(O)C(O)C2O)C(O)C(O)C1O)[C@H]1CC[C@]2(C)[C@@H]1[C@H](O)C[C@@H]1[C@@]3(C)CC[C@H](OC4OC(CO)C(O)C(O)C4OC4OC(CO)C(O)C(O)C4O)C(C)(C)[C@@H]3CC[C@]12C (stereo partly shown) [Rb1]
inhibition at 200 µg/mL [2]: 41.9%

Structure (SMILES): CC(C)=CCC[C@](C)(OC1OC(COC2OCC(O)C(O)C2O)C(O)C(O)C1O)[C@H]1CC[C@]2(C)[C@@H]1[C@H](O)C[C@@H]1[C@@]3(C)CC[C@H](OC4OC(CO)C(O)C(O)C4OC4OC(CO)C(O)C(O)C4O)C(C)(C)[C@@H]3CC[C@]12C (stereo partly shown) [Rb2]
inhibition at 200 µg/mL [2]: 42.9%

Structure (SMILES): CC(C)=CCC[C@](C)(O[C@@H]1O[C@H](CO[C@@H]2OC[C@@H](O)[C@H](O)[C@H]2O)[C@@H](O)[C@H](O)[C@H]1O)[C@H]1CC[C@]2(C)[C@@H]1[C@H](O)C[C@@H]1[C@@]3(C)CC[C@H](O[C@@H]4O[C@H](CO)[C@@H](O)[C@H](O)[C@H]4O[C@@H]4O[C@H](CO)[C@@H](O)[C@H](O)[C@H]4O)C(C)(C)[C@@H]3CC[C@]12C [Rb3]
Inhibition Rate (0.2 mg/ml) ([2]; Hela-CD4 cell strain, 0.2 mg/ml): 70.68% | Inhibition Rate (0.4 mg/ml) ([2]; Hela-CD4 cell strain, 0.4 mg/ml): 97.9% | binding to gp41 protein [3]: can bind | binding to gp120 protein [4]: can bind | Inhibition rate (%) ([5]; dosing 2 hours post-infection): 83.98% | Inhibition rate (%) ([5]; dosing 10 hours post-infection): 0% | Inhibition rate (%) ([5]; dosing 29 hours post-infection): 0%

Structure (SMILES): CC(C)=CCC[C@](C)(OC1OC(COC2OC(CO)C(O)C2O)C(O)C(O)C1O)[C@H]1CC[C@]2(C)[C@@H]1[C@H](O)C[C@@H]1[C@@]3(C)CC[C@H](OC4OC(CO)C(O)C(O)C4OC4OC(CO)C(O)C(O)C4O)C(C)(C)[C@@H]3CC[C@]12C (stereo partly shown) [Rc]
inhibition at 200 µg/mL [2]: 60.7%
